The target of assay [1] is human 5-hydroxytryptamine receptor 2A (5-HT2A) (Homo sapiens, UniProt P28223). As to the kind of experiment: biochemical. Type of assay: binding. As to the method:
The objective of this study was to evaluate the binding properties of exemplary compounds of Formula (I) on 5-hydroxytryptamine receptor 2A (5-HT2A).
1. The assay buffer was prepared following Table 17 below.
2. 8 doses of reference and test compounds starting from 10 mM stock solution as required were prepared by 5-fold serial dilutions with 100% (v/v) DMSO.
3. UniFilter-96 GF/B plate was pretreated: • i. 50 μl/well of 0.5% (v/v) PEI was added to UniFilter-96 GF/C plates. The plates were sealed and incubated at 4° C. for 3 hours (hrs). • ii. After incubation, the plates were washed 3 times with ice-cold wash buffer (50 mM Tris, pH7.4).
4. The assay plate was prepared: • i. Cell membrane was diluted with assay buffer and 330 μl/well was added to 96 round deep well plates to reach a concentration of 20 μg/well. • ii. 8 concentrations of reference or test compounds were prepared and 110 μl/well was added to 96 round deep well plates. • iii. [3H]-ketanserin was diluted with assay buffer to 5 nM (5× final concentration) and 110 μl/well was added to 96 round deep well plates.
5. The plate was centrifuged at 1000 rpm for 30 seconds (secs) and then agitated at 600 rpm at room temperature for 5 min.
6. The plates were sealed and the plate incubated at 27° C. for 90 min.
(§1) 7. The incubation was stopped by vacuum filtration onto GF/B filter plates followed by 4 times washing with ice-cold wash buffer (50 mM Tris, pH7.4).
8. The filter plates were sealed and 40 μl/well of scintillation cocktail was added.
(§2) 10. The plate was read by using a Microbeta^2 microplate counter.
(§3) 1. For reference and test compounds, the results were expressed as % Inhibition, using the normalization equation: N=100−100×(U−C2)/(C1−C2), where U is the unknown value, C1 is the average of high controls, and C2 is the average of low controls.
2. The IC50 was determined by fitting percentage of inhibition as a function of compound concentrations with Hill equation using XLfit. […]
(§4) 9. The filter plates were sealed and 40 μl/well of scintillation cocktail was added.

In assay [2] the target is T1, human 5-hydroxytryptamine receptor 1A (5-HT1A) (Homo sapiens, UniProt P08908).
T1 sequence (P08908 1-422): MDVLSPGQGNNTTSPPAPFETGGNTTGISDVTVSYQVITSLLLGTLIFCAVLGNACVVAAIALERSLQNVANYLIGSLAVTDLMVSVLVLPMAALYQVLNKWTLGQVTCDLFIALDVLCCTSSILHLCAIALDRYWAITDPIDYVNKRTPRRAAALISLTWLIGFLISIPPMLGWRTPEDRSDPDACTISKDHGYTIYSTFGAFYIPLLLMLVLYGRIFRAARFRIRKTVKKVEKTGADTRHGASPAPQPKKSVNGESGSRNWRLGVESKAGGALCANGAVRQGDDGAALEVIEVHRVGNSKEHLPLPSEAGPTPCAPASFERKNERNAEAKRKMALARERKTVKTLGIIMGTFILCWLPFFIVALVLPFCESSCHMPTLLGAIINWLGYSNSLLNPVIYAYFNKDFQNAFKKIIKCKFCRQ
Description: Human 5-HT1A radioligand binding assay ([3H]-8-Hydroxy-DPAT). As to the method:
The objective of this study was to evaluate the binding properties of test compounds on 5-hydroxytryptamine receptor 1A (5-HT1A).
1. The assay buffer was prepared following Table 25 below.
2. 8 doses of reference and test compounds were prepared starting from 10 mM stock solution as required by 5-fold serial dilutions with 100% (v/v) DMSO.
3. UniFilter-96 GF/B plate was pretreated: • i. 50 μl/well of 0.5% (v/v) PEI was added to UniFilter-96 GF/B plates. The plates were sealed and incubated at 4° C. for 3 hrs. • ii. After incubation, the plates were washed 3 times with ice-cold wash buffer (50 mM Tris, pH7.4).
4. Assay plate was prepared: • i. Cell membrane was diluted with assay buffer and 100 μl/well was added to 96 round well plates to reach a concentration of 20 μg/well. • ii. 8 concentrations of reference or test compounds were prepared and 50 μl/well was added to 96 round deep well plates. • iii. [3H]-8-Hydroxy-DPAT was diluted with assay buffer to 2 nM (4× final concentration) and 50 μl/well was added to 96 round well plates.
5. The plate was centrifuged at 1000 rpm for 30 secs and then agitated at 600 rpm at room temperature for 5 min.
6. The plates were sealed and the plate was incubated at 27° C. for 90 min.
as §1, §4, §2, §3
2. The IC50 was determined by fitting percentage of inhibition as a […] of compound concentrations with Hill equation using XLfit.
1. The assay buffer was prepared following Table 55 below.
3. UniFilter-96 GF/B plate was pretreated: • i. 50 μL/well of 0.5% (v/v) PEI was added to UniFilter-96 GF/B plates. The plates were sealed and incubated at 4° C. for 3 hrs. • ii. After incubation, the plates were washed 3 times with ice-cold wash buffer (50 mM Tris, pH7.4).
4. Assay plate was prepared: • i. Cell membrane was diluted with assay buffer and 100 μl/well was added to 96 round well plates to reach a concentration of 20 μg/well. • ii. 8 concentrations of reference or test compounds were prepared and 50 μl/well was added to 96 round deep well plates. • iii. [3H]-8-Hydroxy-DPAT was diluted with assay buffer to 2 nM (4× final concentration) and 50 μL/well was added to 96 round well plates.

Assay [3] deals with T2, human 5-HT2A receptor (Homo sapiens, UniProt P28223).
T2 construct: expressed in transfected cells; host or cells: U2OS
Description: Human 5-HT2A β-arrestin reporter assay. The class given is cell-based. To be noted: for Emax (% of serotonin): U2OS cells, relative to maximum response of serotonin. As to the method:
Compound potency (EC50) and efficacy (Max response) against the human 5-HT2A receptor in stably transfected U2OS cells were determined in a G protein-coupled receptors (GPCR) cell based β-arrestin reporter assay.
Cells were seeded in a total volume of 20 μL into white walled, 384-well microplates and incubated at 37° C. overnight before analysis. For agonist determination, cells were incubated with samples to induce response. Intermediate dilution of sample stocks was performed to generate 5× samples in assay buffer. 5 μL of 5× samples were added to cells and incubated at 37° C. for 120 minutes. The final assay vehicle concentration was 1%. The results are expressed as percent efficacy relative to the maximum response of the control ligand (serotonin) in Table 10.
Compound potency (EC50) and efficacy (Max response) against the human 5-HT2A receptor in stably transfected U2OS cells was determined in a GPCR cell based β-arrestin reporter assay.
Cells were seeded in a total volume of 20 μL into white walled, 384-well microplates and incubated at 37° C. overnight before analysis. For agonist determination, cells were incubated with sample to induce response. Intermediate dilution of sample stocks was performed to generate 5× samples in assay buffer. 5 μL of 5× samples were added to cells and incubated at 37° C. for 120 mins. The final assay vehicle concentration was 1%. The results are expressed as percent efficacy relative to the maximum response of the control ligand (serotonin) in Table 48.
(In general: A reporter such as luciferase makes a cellular process visible.)

[4] abbreviates: β-arrestin reporter, stably transfected U2OS cells, 120 min, read-out: EC50.

Like-named read-outs stand apart in the source and are kept apart here.

The source of these data is patent US12606543B2, “Indole derivatives as serotonergic agents useful for the treatment of disorders related thereto” (priority 2023, dated 2026).

Sequence of human 5-hydroxytryptamine receptor 2A (5-HT2A) (P28223 whole entry): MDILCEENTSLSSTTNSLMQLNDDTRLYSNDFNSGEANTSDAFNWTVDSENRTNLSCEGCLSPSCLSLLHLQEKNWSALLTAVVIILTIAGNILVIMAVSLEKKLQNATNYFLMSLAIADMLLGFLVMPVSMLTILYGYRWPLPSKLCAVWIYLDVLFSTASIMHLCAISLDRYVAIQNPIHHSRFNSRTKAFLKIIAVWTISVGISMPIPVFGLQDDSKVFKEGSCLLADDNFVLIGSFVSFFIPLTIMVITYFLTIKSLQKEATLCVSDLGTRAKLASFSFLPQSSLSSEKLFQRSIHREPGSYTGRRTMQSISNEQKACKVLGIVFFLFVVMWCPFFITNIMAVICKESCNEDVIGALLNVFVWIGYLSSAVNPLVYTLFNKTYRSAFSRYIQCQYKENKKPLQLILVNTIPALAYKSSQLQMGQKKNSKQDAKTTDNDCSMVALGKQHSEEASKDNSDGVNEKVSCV
T2 sequence (P28223 whole entry): as above

Consider `[2H]C([2H])(c1c[nH]c2ccc(OCCCCCN3C(=O)C4CCCCC4C3=O)cc12)[C@H]1CCCN1C([2H])([2H])[2H]` (mixture of isomers) [Rac (R) I-248], for which the half-inhibitory concentration (IC50) in assay [1] amounted to 310 nM; in assay [2], 8.3 nM.
For the compound `[2H]C([2H])(c1c[nH]c2ccc(OCCCCCN3C(=O)[C@H]4CCCC[C@H]4C3=O)cc12)[C@H]1CCCN1C([2H])([2H])[2H]` [Cis (R) I-248, 2-(5-((3-(((R)-1-(Methyl-d3)pyrrolidin-2-yl)methyl-d2)-1H-indol-5-yl)oxy)pentyl)hexahydro-1H-isoindole-1,3(2H)-dione], the “Emax (% of serotonin)” value in assay [3] (β-arrestin reporter) is listed as 84.4 % of serotonin. For the same compound, the EC50 in assay [3] (setting [4]) was 112 nM.
Consider `[2H]C([2H])(c1c[nH]c2ccc(OCCCCN3C(=O)c4ccccc4C3=O)cc12)[C@H]1CCCN1C([2H])([2H])[2H]` [(R) I-244, (R)-2-(4-((3-((1-(Methyl-d3)pyrrolidin-2-yl)methyl-d2)-1H-indol-5-yl)oxy)butyl)isoindoline-1,3-dione], for which the results for the IC50 in assay [1] and in assay [2] were 129 nM and 15 nM, respectively. For the same compound, in assay [3] (β-arrestin reporter), the “Emax (% of serotonin)” value is given as 79.58 % of serotonin. Besides, the EC50 in assay [3] (setting [4]) is 6.71 nM.
In the case of `CSc1ccc2[nH]cc(C[C@H]3CCCN3C)c2c1` [(R) I-1, (R)-3-((1-Methylpyrrolidin-2-yl)methyl)-5-(methylthio)-1H-indole], the IC50 in assay [1] came to 154 nM; in assay [2] it was 3 nM. The compound also came in with an EC50 in assay [3] of 25.4 nM. The “Emax (% of serotonin)” value in assay [3] (β-arrestin reporter) is given as 79.27 % of serotonin.
In the case of `[2H]C([2H])(c1c[nH]c2ccc(OCCCCCN3C(=O)c4ccccc4C3=O)cc12)[C@H]1CCCN1C([2H])([2H])[2H]` [(R) I-245, (R)-2-(5-((3-((1-(Methyl-d3)pyrrolidin-2-yl)methyl-d2)-1H-indol-5-yl)oxy)pentyl)isoindoline-1,3-dione], the 50% inhibitory concentration (IC50) in assay [1] is 225 nM; in assay [2], 5 nM. Further, in assay [3] (β-arrestin reporter), the “Emax (% of serotonin)” value is 82.18 % of serotonin. For the same compound, the EC50 in assay [3] (setting [4]) came to 28.4 nM.
Take `CN(C)CCc1c[nH]c2ccccc12` [DMT]: in assay [1] ([3H]-ketanserin displacement, cell membrane, 27° C., 90 min, read-out: h5-HT2A, IC50), the IC50 amounted to 954 nM. Also, the “Emax (% of serotonin)” value in assay [3] (β-arrestin reporter) was 38.86 % of serotonin. In addition, the EC50 in assay [3] (setting [4]) came to 114 nM.
For `COCCN1CCC[C@@H]1Cc1c[nH]c2ccc(OC)cc12` [(R) I-98, (R)-5-Methoxy-3-((1-(2-methoxyethyl)pyrrolidin-2-yl)methyl)-1H-indole], the IC50 amounted to 350 nM in assay [1] and 5 nM in assay [2]. Moreover, in assay [3] (β-arrestin reporter), the “Emax (% of serotonin)” value is listed as 81.67 % of serotonin. The EC50 in assay [3] (setting [4]) turned out to be 25.8 nM.

One may read the IC50 as the point on the concentration scale where inhibition reaches its midpoint. Usually EC50 stands for the midpoint of the concentration-response curve.
